Test results: patent US8476197B2, “Aminopropenoates as fungicides” (priority 2009, dated 2013)
Read-outs that look alike come from different tables or passages of the source. Marks after values point to notes of the source that are not given here.

SMILES	Log P (pH 2.7)	Log P (pH 2.3)	Log P (pH 7.5)
CCOC(=O)C(C#N)=C(NC(C)C(C)OC)c1cccnc1Cl (stereo not drawn) [Compound 1527]	2.8^[a]	–	–
CCOC(=O)C(C#N)=C(NC(C)c1cncnc1C(F)(F)F)c1cccnc1Cl (stereo not drawn) [Compound 1528]	2.63^[a]	–	–
CCOC(=O)C(C#N)=C(NC(C)c1cn2ccsc2n1)c1cccnc1Cl (stereo not drawn) [Compound 1529]	2.35^[a]	–	–
CCOC(=O)C(C#N)=C(NC(C)c1ccccc1Br)c1cccnc1Cl (stereo not drawn) [Compound 1530]	3.89^[a]	–	–
CCOC(=O)C(C#N)=C(NC(C)C1CCCO1)c1cccnc1Cl (stereo not drawn) [Compound 1531]	2.71^[a]	–	–
CCOC(=O)C(C#N)=C(NC(C)c1ccccc1F)c1cccnc1Cl (stereo not drawn) [Compound 1532]	3.48^[a]	–	–
CCOC(=O)C(C#N)=C(NC(C)C1(C)CC1)c1cccnc1Cl (stereo not drawn) [Compound 1533]	3.46^[a]	–	–
CCOC(=O)C(C#N)=C(NC(C)c1c(C)cccc1C)c1cccnc1Cl (stereo not drawn) [Compound 1534]	3.96^[a]	–	–
CCOC(=O)C(C#N)=C(NC(C)c1c(F)cccc1F)c1cccnc1Cl (stereo not drawn) [Compound 1535]	3.27^[a]	–	–
CCOC(=O)C(C#N)=C(NC(C)c1nc(C)cs1)c1cccnc1Cl (stereo not drawn) [Compound 1536]	2.88^[a]	–	–
CCOC(=O)C(C#N)=C(Nc1cccc2cn(C)nc12)c1cccnc1Cl [Compound 1537]	2.68^[a]	–	–
CCOC(=O)C(C#N)=C(NC(C)C(=O)OCc1ccccc1)c1cccnc1Cl (stereo not drawn) [Compound 1539]	3.53^[a]	–	–
CCOC(=O)C(C#N)=C(NC(C)C(C)C)c1cccnc1-c1ccc(F)cc1 (stereo not drawn) [Compound 1541]	–	3.7	–
CCOC(=O)C(C#N)=C(NCc1ccc(C)c(C)n1)c1cnn(C)c1Cl [Compound 1542]	1.66^[a]	–	–
CCOC(=O)C(C#N)=C(NC(C)C(C)C)c1cccnc1Br (stereo not drawn) [Compound 1545]	–	3.27	–
CCOC(=O)C(C#N)=C(NC1(c2ccccc2)CCC1)c1cccnc1Cl [Compound 1550]	3.73^[a]	–	–
CCOC(=O)C(C#N)=C(NC1(C(=O)OCC)CCC1)c1cccnc1Cl [Compound 1551]	3.17^[a]	–	–
CCOC(=O)C(C#N)=C(Nc1cccc2scnc12)c1cccnc1Cl [Compound 1553]	2.61^[a]	–	–
CCOC(=O)C(C#N)=C(NCc1ncccc1C(F)(F)F)c1cccnc1Cl [Compound 1554]	3^[a]	–	–
CCOC(=O)C(C#N)=C(Nc1cccc2oc(C)nc12)c1cccnc1Cl [Compound 1555]	3^[a]	–	–
CCOC(=O)C(C#N)=C(Nc1cccc2nsnc12)c1cccnc1Cl [Compound 1556]	3.17^[a]	–	–

SMILES	Log P (pH 2.7)	Log P (pH 2.3)	Log P (pH 7.5)
CCOC(=O)C(C#N)=C(NC(C)c1c(Cl)cccc1Cl)c1cnn(C)c1Cl (stereo not drawn) [Compound 1559]	3.78^[a]	–	–
CCOC(=O)C(C#N)=C(NC(C)C(C)C)c1cn(C)nc1C(Cl)Cl (stereo not drawn) [Compound 1562]	3.46^[a]	–	–
CCOC(=O)C(C#N)=C(NC(C)c1nccs1)c1cn(C)nc1C(Cl)Cl (stereo not drawn) [Compound 1564]	2.75^[a]	–	–
CCOC(=O)C(C#N)=C(NC1CCC1)c1cn(C)nc1C(Cl)Cl [Compound 1566]	3.09^[a]	–	–
CCOC(=O)C(C#N)=C(NC(C)COC)c1cn(C)nc1C(Cl)Cl (stereo not drawn) [Compound 1567]	2.76^[a]	–	–
CCOC(=O)C(C#N)=C(NC(C)C(C)C)c1cccnc1-c1cccc(Cl)c1 (stereo not drawn) [Compound 1568]	–	4.07	4.09
CCOC(=O)C(C#N)=C(NC(C)C1CC1)c1cccnc1OCc1ccccc1 (stereo not drawn) [Compound 1570]	–	3.08^[c]; 3.08^[b]	3.08^[c]; 3.08^[b]
CC(NC(=C(C#N)C(=O)O)c1cccnc1Cl)c1ccccn1 (stereo not drawn) [Compound 1571]	1.37^[a]	–	–
C=CCOC(=O)C(C#N)=C(NC(C)c1ccccn1)c1cccnc1Cl (stereo not drawn) [Compound 1572]	2.66^[a]	–	–
CCOC(=O)C(C#N)=C(NC(C)C(=O)NC)c1cn(C)nc1C(Cl)Cl (stereo not drawn) [Compound 1573]	3.9^[a]	–	–
CCOC(=O)C(C#N)=C(NC(C)c1c(Cl)cccc1Cl)c1cn(C)nc1C(Cl)Cl (stereo not drawn) [Compound 1574]	3.94^[a]	–	–
CCOC(=O)C(C#N)=C(NCc1ccc(C)c(C)n1)c1cn(C)nc1C(Cl)Cl [Compound 1575]	2.07^[a]	–	–
CCOC(=O)C(C#N)=C(NC(C)C(C)OC)c1cn(C)nc1C(Cl)Cl (stereo not drawn) [Compound 1576]	2.98^[a]	–	–
CCOC(=O)C(C#N)=C(NC(C)C(C)CC)c1cn(C)nc1C(Cl)Cl (stereo not drawn) [Compound 1577]	3.8^[a]	–	–
CCOC(=O)C(C#N)=C(NC(C)c1nccs1)c1cc(Cl)sc1Cl (stereo not drawn) [Compound 1578]	3.58^[a]	–	–
CCOC(=O)C(C#N)=C(NC(C)C(C)C)c1cc(Cl)sc1Cl (stereo not drawn) [Compound 1580]	4.68^[a]	–	–
CCOC(=O)C(C#N)=C(NC1CCC1)c1cc(Cl)sc1Cl [Compound 1581]	4.26^[a]	–	–
CONC(=O)C(C#N)=C(NC(C)c1ccccn1)c1cccnc1Cl (stereo not drawn) [Compound 1583]	1.46^[a]	–	–
CCNC(=O)C(C#N)=C(NC(C)c1ccccn1)c1cccnc1Cl (stereo not drawn) [Compound 1584]	1.93^[a]	–	–
CCOC(=O)C(C#N)=C(NC(C)C(C)C)c1cccnc1-c1ccc(OC(F)(F)F)cc1 (stereo not drawn) [Compound 1586]	–	4.39	4.41
CCOC(=O)C(C#N)=C(NC(C)C1CC1)c1cc(Cl)sc1Cl (stereo not drawn) [Compound 1587]	4.43^[a]	–	–

SMILES	Log P (pH 2.7)	Log P (pH 2.3)	Log P (pH 7.5)
CCOC(=O)C(C#N)=C(NC(C)COC)c1cc(Cl)sc1Cl (stereo not drawn) [Compound 1588]	3.78^[a]	–	–
CCOC(=O)C(C#N)=C(NC(C)C1CCC1)c1cc(Cl)sc1Cl (stereo not drawn) [Compound 1589]	5.03^[a]	–	–
CCOC(=O)C(C#N)=C(Nc1ccccc1F)c1cccnc1Cl [Compound 1590]	–	2.87	2.85
CCOC(=O)C(C#N)=C(Nc1ccn(C)c1SC)c1cccnc1Cl [Compound 1592]	–	3.01^[c]; 3.01^[b]	3.01^[c]; 3.01^[b]
CC(C)C(C)NC(=C(C#N)C(=O)NCCF)c1cccnc1Cl (stereo not drawn) [Compound 1593]	2.76^[a]	–	–
CC(NC(=C(C#N)C(=O)N1CCSC1C)c1cccnc1Cl)c1nccs1 (stereo not drawn) [Compound 1594]	2.76^[a]	–	–
CC(NC(=C(C#N)C(=O)N1CCOCC1)c1cccnc1Cl)c1nccs1 (stereo not drawn) [Compound 1595]	1.84^[a]	–	–
COC(=O)CNC(=O)C(C#N)=C(NC(C)c1nccs1)c1cccnc1Cl (stereo not drawn) [Compound 1596]	1.9^[a]	–	–
CCOC(=O)C(C#N)=C(Nc1ccc(F)c(F)c1)c1cccnc1Cl [Compound 1597]	–	3	2.96
CCONC(=O)C(C#N)=C(NC(C)c1nccs1)c1cccnc1Cl (stereo not drawn) [Compound 1598]	1.8^[a]	–	–
CC(NC(=C(C#N)C(=O)N1CCCO1)c1cccnc1Cl)c1nccs1 (stereo not drawn) [Compound 1599]	1.9^[a]	–	–
CCOC(=O)C(C#N)=C(Nc1ccc(F)cc1F)c1cccnc1Cl [Compound 1600]	–	2.95	2.9
C=CCOC(=O)C(C#N)=C(Nc1ccccc1SC)c1cccnc1Cl [Compound 1602]	–	3.32^[c]; 3.32^[b]	3.32^[c]; 3.32^[b]
CCOC(=O)C(C#N)=C(NC(C)C(C)OC)c1cc(Cl)sc1Cl (stereo not drawn) [Compound 1603]	4.02^[a]	–	–
CCOC(=O)C(C#N)=C(Nc1cccc(F)c1F)c1cccnc1Cl [Compound 1604]	–	3	2.88
CCOC(=O)C(C#N)=C(NC1CCCc2cccnc21)c1cccnc1Cl (stereo not drawn) [Compound 1605]	3^[a]	–	–
CCOC(=O)C(C#N)=C(NC(C)C1CCCC1)c1cccnc1Cl (stereo not drawn) [Compound 1606]	3.9^[a]	–	–
CCOC(=O)C(C#N)=C(NC1(C)CCC1)c1cccnc1Cl [Compound 1607]	3.11^[a]	–	–
CCOC(=O)C(C#N)=C(NC(C)c1ccn[nH]1)c1cccnc1Cl (stereo not drawn) [Compound 1608]	2.1^[a]	–	–
CCOC(=O)C(C#N)=C(Nc1cc(F)ccc1F)c1cccnc1Cl [Compound 1609]	–	2.95	2.83
CCOC(=O)C(C#N)=C(Nc1cccc(F)c1C)c1cccnc1Cl [Compound 1610]	–	3.26	3.24

SMILES	Log P (pH 2.7)	Log P (pH 2.3)	Log P (pH 7.5)
CCOC(=O)C(C#N)=C(Nc1cccc(F)c1OC)c1cccnc1Cl [Compound 1611]	–	3.13^[c]; 3.13^[b]	3.13^[c]; 3.13^[b]
CC(C)C(C)NC(=C(C#N)C(=O)N1CCCO1)c1cccnc1Cl (stereo not drawn) [Compound 1612]	2.55^[a]	–	–
COC1(NC(=O)C(C#N)=C(NC(C)C(C)C)c2cccnc2Cl)CC1 (stereo not drawn) [Compound 1613]	2.75^[a]	–	–
CC(C)C(C)NC(=C(C#N)C(=O)NN(C)C)c1cccnc1Cl (stereo not drawn) [Compound 1614]	2.08^[a]	–	–
CC(C)C(C)NC(=C(C#N)C(=O)N1CCSC1C)c1cccnc1Cl (stereo not drawn) [Compound 1615]	3.6^[a]	–	–
CCNC(=O)C(C#N)=C(Nc1ccccc1SC)c1cccnc1Cl [Compound 1616]	–	2.85	2.82
CCOC(=O)C(C#N)=C(NC(C)C(C)C)c1ccc(Cl)nc1 (stereo not drawn) [Compound 1617]	–	3.39	3.41
CC(C)C(C)NC(=C(C#N)C(=O)N1CCSC1)c1cccnc1Cl (stereo not drawn) [Compound 1618]	3.1^[a]	–	–
CON=C(C)NC(=O)C(C#N)=C(NC(C)C(C)C)c1cccnc1Cl (stereo not drawn) [Compound 1619]	1.88^[a]	–	–
CONC(=O)C(C#N)=C(Nc1ccccc1SC)c1cccnc1Cl [Compound 1620]	–	2.19	1.96
CCOC(=O)C(C#N)=C(NC1CCC1)c1ccnc(C(F)(F)F)c1Cl [Compound 1621]	3.78^[a]	–	–
CCOC(=O)C(C#N)=C(NC(C)C1CC1)c1ccnc(C(F)(F)F)c1Cl (stereo not drawn) [Compound 1622]	3.85^[a]	–	–
CCOC(=O)C(C#N)=C(NC(C)COC)c1ccnc(C(F)(F)F)c1Cl (stereo not drawn) [Compound 1623]	3.46^[a]	–	–
CCOC(=O)C(C#N)=C(NC(C)C1CCCO1)c1ccnc(C(F)(F)F)c1Cl (stereo not drawn) [Compound 1624]	3.62^[a]	–	–
CCOC(=O)C(C#N)=C(NC(C)c1ccccn1)c1ccnc(C(F)(F)F)c1Cl (stereo not drawn) [Compound 1625]	3.33^[a]	–	–
CCOC(=O)C(C#N)=C(NC(C)c1nccs1)c1ccnc(C(F)(F)F)c1Cl (stereo not drawn) [Compound 1626]	3.46^[a]	–	–
CCOC(=O)C(C#N)=C(NC(C)C(C)C)c1ccnc(C(F)(F)F)c1Cl (stereo not drawn) [Compound 1627]	4.18^[a]	–	–
CNN(C)C(=O)C(C#N)=C(NC(C)C(C)C)c1cccnc1Cl (stereo not drawn) [Compound 1628]	1.3^[a]	–	–
